Earlier results on 1 compound are cited in patent US20130280327A1, “ZOLPIDEM-BASED ORODISPERSIBLE PHARMACEUTICAL TABLET” (Sanofi, priority 2010, published 2013).

The conditions of the data set: hypnotic action, oral, conventional formulations.

Structures are written as SMILES.

Consider `Cc1ccc(-c2nc3ccc(C)cn3c2CC(=O)N(C)C)cc1` [zolpidem], for which the duration of action entry was “up to 6 hours”.
